We go through 9 compounds from US11285226B2, “Aryl ethene derivative and pharmaceutical composition containing same as active ingredient” (priority 2016, dated 2022).

Holding throughout (format): in vitro ADME
Holding throughout (settings): 10 μM, human liver microsomes
In general terms: Liver microsomes are a subcellular fraction often used to study metabolism.

One data set addresses CYP2D6 (Homo sapiens (Human), UniProt P10635). Kind of data set: Cytochrome P450 activity inhibition, CYP2D6. An excerpt:
(§1) 1) Cytochrome P450 (CYP450) Activity Inhibition Evaluation

For a further data set, the target named is CYP2C9 (Homo sapiens (Human), UniProt P11712). Kind of data set: Cytochrome P450 activity inhibition, CYP2C9.
Chain of CYP2C9 (P11712 whole entry): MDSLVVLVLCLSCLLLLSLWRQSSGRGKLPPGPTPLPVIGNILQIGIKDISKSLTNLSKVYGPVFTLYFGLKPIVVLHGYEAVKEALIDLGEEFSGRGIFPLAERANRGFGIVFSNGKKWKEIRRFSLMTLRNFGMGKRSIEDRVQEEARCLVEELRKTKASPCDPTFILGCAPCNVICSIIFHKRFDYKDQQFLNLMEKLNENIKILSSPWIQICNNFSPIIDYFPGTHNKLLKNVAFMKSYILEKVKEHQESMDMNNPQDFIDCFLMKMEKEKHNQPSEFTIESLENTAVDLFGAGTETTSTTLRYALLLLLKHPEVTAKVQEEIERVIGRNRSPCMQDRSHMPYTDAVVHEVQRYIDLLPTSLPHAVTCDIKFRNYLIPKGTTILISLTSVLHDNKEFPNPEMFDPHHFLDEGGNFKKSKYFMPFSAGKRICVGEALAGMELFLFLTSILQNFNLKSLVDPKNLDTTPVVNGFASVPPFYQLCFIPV
Description: as §1

Another data set addresses CYP1A2 (Homo sapiens (Human), UniProt P05177). Kind of data set: Cytochrome P450 activity inhibition, CYP1A2.
Description: as §1

In a further data set the target is CYP3A4 (Homo sapiens (Human), UniProt P08684). Kind of data set: Cytochrome P450 activity inhibition, CYP3A4.
Chain of CYP3A4 (P08684 whole entry): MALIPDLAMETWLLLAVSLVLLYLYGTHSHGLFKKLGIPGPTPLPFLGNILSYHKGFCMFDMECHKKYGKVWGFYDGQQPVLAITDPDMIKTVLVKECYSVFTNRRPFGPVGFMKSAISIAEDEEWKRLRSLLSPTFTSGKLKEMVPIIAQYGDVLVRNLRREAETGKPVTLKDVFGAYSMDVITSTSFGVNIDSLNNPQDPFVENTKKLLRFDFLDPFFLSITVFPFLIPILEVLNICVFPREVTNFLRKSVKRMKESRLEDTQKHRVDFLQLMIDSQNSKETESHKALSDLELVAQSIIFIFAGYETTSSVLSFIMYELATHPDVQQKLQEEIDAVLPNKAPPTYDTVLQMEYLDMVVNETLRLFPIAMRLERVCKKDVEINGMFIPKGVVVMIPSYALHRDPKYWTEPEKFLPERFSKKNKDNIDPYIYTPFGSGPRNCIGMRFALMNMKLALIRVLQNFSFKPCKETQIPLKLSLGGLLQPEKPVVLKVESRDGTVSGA
In the next data set the target is CYP2C19 (Homo sapiens (Human), UniProt P33261). Kind of data set: Cytochrome P450 activity inhibition, CYP2C19.
Chain of CYP2C19 (P33261 whole entry): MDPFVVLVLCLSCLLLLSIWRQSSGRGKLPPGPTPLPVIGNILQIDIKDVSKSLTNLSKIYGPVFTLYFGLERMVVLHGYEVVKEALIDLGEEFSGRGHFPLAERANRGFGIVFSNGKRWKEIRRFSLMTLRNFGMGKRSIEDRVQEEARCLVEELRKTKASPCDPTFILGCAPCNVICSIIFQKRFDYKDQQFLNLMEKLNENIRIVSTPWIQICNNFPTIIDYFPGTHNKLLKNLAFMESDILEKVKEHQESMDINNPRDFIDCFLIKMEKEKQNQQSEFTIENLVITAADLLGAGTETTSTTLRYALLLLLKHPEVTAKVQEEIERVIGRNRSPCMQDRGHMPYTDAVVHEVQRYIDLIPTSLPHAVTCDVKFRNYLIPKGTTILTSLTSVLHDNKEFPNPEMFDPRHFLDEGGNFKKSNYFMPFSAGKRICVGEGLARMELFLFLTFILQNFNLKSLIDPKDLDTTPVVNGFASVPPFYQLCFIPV
Description: as §1

Chain of CYP2D6 (P10635 whole entry): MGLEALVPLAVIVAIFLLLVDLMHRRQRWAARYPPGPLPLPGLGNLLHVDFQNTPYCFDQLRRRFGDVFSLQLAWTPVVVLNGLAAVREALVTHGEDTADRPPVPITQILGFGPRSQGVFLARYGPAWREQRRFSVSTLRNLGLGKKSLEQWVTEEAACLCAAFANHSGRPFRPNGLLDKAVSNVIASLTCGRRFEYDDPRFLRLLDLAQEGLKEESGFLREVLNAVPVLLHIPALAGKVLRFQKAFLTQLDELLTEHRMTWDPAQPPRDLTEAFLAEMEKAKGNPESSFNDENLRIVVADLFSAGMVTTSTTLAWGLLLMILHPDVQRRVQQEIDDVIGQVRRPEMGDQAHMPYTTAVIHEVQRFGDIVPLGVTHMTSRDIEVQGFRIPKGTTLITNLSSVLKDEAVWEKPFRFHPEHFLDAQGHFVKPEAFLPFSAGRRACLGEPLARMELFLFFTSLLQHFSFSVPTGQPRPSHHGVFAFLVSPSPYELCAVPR
Chain of CYP1A2 (P05177 whole entry): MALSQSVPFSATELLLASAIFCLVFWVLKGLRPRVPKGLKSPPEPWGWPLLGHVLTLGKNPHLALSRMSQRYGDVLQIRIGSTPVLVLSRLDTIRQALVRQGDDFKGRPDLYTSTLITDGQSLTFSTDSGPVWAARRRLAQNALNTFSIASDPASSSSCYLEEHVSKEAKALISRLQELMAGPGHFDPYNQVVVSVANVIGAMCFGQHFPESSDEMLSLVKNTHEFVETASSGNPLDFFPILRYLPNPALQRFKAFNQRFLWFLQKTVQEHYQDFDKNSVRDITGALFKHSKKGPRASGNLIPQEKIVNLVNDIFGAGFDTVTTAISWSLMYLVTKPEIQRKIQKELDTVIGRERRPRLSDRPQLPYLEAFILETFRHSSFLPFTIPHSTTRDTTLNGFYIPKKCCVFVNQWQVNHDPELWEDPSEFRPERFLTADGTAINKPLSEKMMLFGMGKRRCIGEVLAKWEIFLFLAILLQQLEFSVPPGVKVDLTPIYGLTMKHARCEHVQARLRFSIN
Description for CYP3A4: Thereafter, in order to complete the reaction, an acetonitrile solution containing an internal standard material (Terfenadine) was added thereto, centrifugation (14,000 rpm, 4° C.) was performed for 5 minutes, and a supernatant was injected into a LC-MS/MS system to analyze the metabolites of the substrate drug, thereby evaluating drug metabolism enzyme inhibition by the arylethene derivative of the present invention.

With `OCCC/C(=C(\c1ccc(O)cc1)c1ccc(OCCN2CCOCC2)cc1)c1ccccc1` [Compound 6c], the “CYP inhibition (% of control) 2D6” value on CYP2D6 is listed as 96.4 % of control. Further, on CYP2C9, the “CYP inhibition (% of control) 2C9” value is 77.9 % of control. The “CYP inhibition (% of control) 1A2” value at CYP1A2 is recorded as 91.9 % of control. Also, the “CYP inhibition (% of control) 3A4” value at CYP3A4 is reported as 81.3 % of control. Further, the “CYP inhibition (% of control) 2C19” value on CYP2C19 is reported as 81.6 % of control.

Consider `OCCC/C(=C(\c1ccc(O)cc1)c1ccc(OCCN2CCCC2)cc1)c1ccccc1` [Compound 6e], for which, on CYP2D6, the “CYP inhibition (% of control) 2D6” value is recorded as 80.6 % of control. Further, on CYP2C9, the “CYP inhibition (% of control) 2C9” value is listed as 51.6 % of control. The “CYP inhibition (% of control) 1A2” value at CYP1A2 is 79.6 % of control. For the same compound, on CYP3A4, the “CYP inhibition (% of control) 3A4” value is recorded as 68.1 % of control. Besides, at CYP2C19, the “CYP inhibition (% of control) 2C19” value is given as 64.1 % of control.

Take `CN1CCC[C@@H]1COc1ccc(/C(=C(/CCCO)c2ccccc2)c2ccc(O)cc2)cc1` [Compound 6i]: at CYP2D6, the “CYP inhibition (% of control) 2D6” value is 93.6 % of control. Further, on CYP2C9, the “CYP inhibition (% of control) 2C9” value is on record as 86.7 % of control. Further, on CYP1A2, the “CYP inhibition (% of control) 1A2” value was 98.1 % of control. Further, the “CYP inhibition (% of control) 3A4” value on CYP3A4 is 79.4 % of control. Further, the “CYP inhibition (% of control) 2C19” value on CYP2C19 is recorded as 82.6 % of control.

Take `CN1CCCC1CCOc1ccc(/C(=C(/CCCO)c2ccccc2)c2ccc(Br)cc2)cc1` (centres unmarked) [Compound 13d]: the “CYP inhibition (% of control) 2D6” value at CYP2D6 is given as >100 % of control. In addition, the “CYP inhibition (% of control) 2C9” value at CYP2C9 is reported as 97 % of control. The “CYP inhibition (% of control) 1A2” value on CYP1A2 is >100 % of control. Also, the “CYP inhibition (% of control) 3A4” value at CYP3A4 is listed as 90.2 % of control. Further, the “CYP inhibition (% of control) 2C19” value on CYP2C19 is 89.4 % of control.

On to `CC(C)(C)OC(=O)N1CC(c2ccc(/C(=C(/CCCO)c3ccccc3)c3ccc(O)cc3)cc2)C1` [Compound 18t, tert-butyl (E)-3-(4-(5-hydroxy-1-(4-hydroxyphenyl)-2-phenylpent-1-en-1-yl)phenyl)azetidine-1-carboxylate], for which the “CYP inhibition (% of control) 2D6” value on CYP2D6 is given as 98 % of control. Moreover, on CYP2C9, the “CYP inhibition (% of control) 2C9” value is given as 83 % of control. Moreover, the “CYP inhibition (% of control) 1A2” value at CYP1A2 is reported as 100 % of control. Besides, the “CYP inhibition (% of control) 3A4” value on CYP3A4 is 106 % of control. Besides, the “CYP inhibition (% of control) 2C19” value on CYP2C19 is 93 % of control.

For the compound `OCCC/C(=C(\c1ccc(Br)cc1)c1ccc(N2CCNCC2)cc1)c1ccccc1` [Compound 20a, (E)-5-(4-bromophenyl)-4-phenyl-5-(4-(piperazin-1-yl)phenyl)pent-4-en-1-ol], on CYP2D6, the “CYP inhibition (% of control) 2D6” value is recorded as 70.7 % of control. Also, the “CYP inhibition (% of control) 2C9” value on CYP2C9 was 76 % of control. At CYP1A2, the “CYP inhibition (% of control) 1A2” value is on record as 85 % of control. Also, the “CYP inhibition (% of control) 3A4” value on CYP3A4 is reported as 55 % of control. On CYP2C19, the “CYP inhibition (% of control) 2C19” value is recorded as 61.9 % of control.

With `CN1CCC(c2ccc(/C(=C(/CCCO)c3ccccc3)c3cccc(O)c3)cc2)CC1` [Compound 22ac], the “CYP inhibition (% of control) 2C9” value at CYP2C9 is given as >100 % of control. The “CYP inhibition (% of control) 1A2” value at CYP1A2 is >100 % of control. The “CYP inhibition (% of control) 3A4” value at CYP3A4 is on record as 85 % of control. The “CYP inhibition (% of control) 2C19” value at CYP2C19 is listed as >100 % of control.

For the compound `OCCC/C(=C(\c1ccc(O)cc1)c1ccc(C2=CCN(C3CC3)CC2)cc1)c1ccccc1` [Compound 22j], at CYP2C9, the “CYP inhibition (% of control) 2C9” value is on record as 88 % of control. For the same compound, at CYP3A4, the “CYP inhibition (% of control) 3A4” value is recorded as 85 % of control.

With `OCCC/C(=C(/c1ccc(C2=CCN(C3CC3)CC2)cc1)c1cccc(O)c1)c1ccccc1` [Compound 22l], the “CYP inhibition (% of control) 2D6” value on CYP2D6 is 99 % of control. Besides, the “CYP inhibition (% of control) 2C19” value on CYP2C19 was 97 % of control.
